Patent US11981677B2, “Further substituted triazolo quinoxaline derivatives” (Grünenthal GmbH, priority 2018, dated 2024)

Biological target: T1, Glucocorticoid Receptor (Homo sapiens, UniProt P04150)
T1 construct: expressed in transfected cells
T1 sequence (P04150 524-758 limits assumed): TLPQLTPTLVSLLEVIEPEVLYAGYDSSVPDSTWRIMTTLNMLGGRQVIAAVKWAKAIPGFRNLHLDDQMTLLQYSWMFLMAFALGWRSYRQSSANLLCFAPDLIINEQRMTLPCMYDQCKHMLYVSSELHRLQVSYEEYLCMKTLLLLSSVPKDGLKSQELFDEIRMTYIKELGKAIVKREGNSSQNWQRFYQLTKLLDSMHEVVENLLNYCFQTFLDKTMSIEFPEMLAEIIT
Test: Agonistic mode of action on the glucocorticoid receptor (CHO-Gal4/GR luciferase reporter cell line)
Format: cell-based
Conditions: CHO-Gal4/GR luciferase reporter cells; observed in the agonistic assay or the antagonistic assay (mode not given); read-out: IC50 or EC50 range
From the text: Potential selective glucocorticoid receptor modulators of this intervention can be tested for modulation of the activity of the glucocorticoid receptor using cell-based assays. These assays involve a Chinese hamster ovary (CHO) cell line which contains fragments of the glucocorticoid receptor as well as fusion proteins. The glucocorticoid receptor fragments used are capable of binding the ligand (e.g. beclomethasone) to identify molecules that compete for binding with glucocorticoid receptor ligands. In more detail, the glucocorticoid receptor ligand binding domain is fused to the DNA binding domain (DBD) of the transcriptionfactor GAL4 (GAL4 DBD-GR) and is stably integrated into a CHO cell line containing a GAL4-UAS-Luciferase reporter construct. […] After cell lysis the luminescence that is produced by luciferase after addition of the substrate is detected and EC50 or IC50 values can be calculated. Engagement of molecules which induce gene expression via glucocortocoid receptor binding to the DNA leads to expression of the luciferase gene under the control of the fusion protein GAL4 DBD-GR and therefore to a dose-dependent increase of the luminescence signal. Binding of molecules which repress beclomethasone-induced gene expression of the luciferase gene under the control of the fusion protein GAL4 DBD-GR leads to a dose-dependent reduction of the luminescence signal.
The reporter cell line CHO-Gal4/GR consisted of a chinese hamster ovary (CHO) cell line (Leibniz Institute DSMZ—German Collection of Microorganisms and Cell Cultures GmbH: ACC-110) containing a firefly luciferase gene under the control of the GR ligand binding domain fused to the DNA binding domain (DBD) of GAL4 (GAL4 DBD-GR) stably integrated into CHO cells. This cell line was established by stable transfection of CHO cells with a GAL4-UAS-Luciferase reporter construct. In a subsequent step the ligand binding domain of the GR cloned into pIRES2-EGFP-GAL4 containing the DNA binding domain of GAL4 from pFA-AT2 was transfected. This fusion construct activated firefly luciferase expression under the control of a multimerized GAL4 upstream activation sequence (UAS). The signal of the emitted luminescence was recorded by the FLIPR^TETRA. This allowed for specific detection of ligand-induced activation of the GR and therefore for the identification of compounds with agonistic properties. The GAL4/UAS reporter was premixed with a vector that constitutively expressed Renilla luciferase, which served as an internal positive control for transfection efficiency.
The complete culture medium for the assay was: • DMEM F-12 (1:1) MIXTURE (LONZA cat. No: BE04-687F/U1) 500 mL • 5 mL of 100 mM Sodium Pyruvate (LONZA cat. No: BE12-115E) • 25 mL of 7.5% Sodium Bicarbonate (LONZA cat. No BE17-613E) • 6.5 mL of 1 M Hepes (LONZA cat. No: BE17-737E) • 5 mL of 100× Penicillin/Streptomycin (LONZA cat. No DE17-602E) • 50 mL of Fetal Bovine Serum (Euroclone cat. No ECS 0180L) • 0.25 mL of 10 mg/mL Puromycin (InvivoGen cat.: ant-pr-1) • 0.5 mL of 100 mg/mL Zeocin (InvivoGen cat.: ant-zn-1)
Cryo-preserved CHO-Gal4/GR cells were suspended in complete medium and 5000 cells/25 μl/well were seeded into the wells of 384-well polystyrene assay plates (Thermo Scientific, cat. #4332) and cultured at 37° C., 5% CO2 and 95% humidity. After 24 hours growth medium was carefully removed and replaced by 30111 Opti-MEM (GIBCO, cat. #31985062) as assay buffer. To test the compounds an 8-point half-log compound dilution curve was generated in 100% DMSO starting from a 2 mM stock and compounds were then diluted 1:50 in Opti-MEM. 10111 of compounds were then added to the wells containing 30 μl Opti-MEM resulting in a final assay concentration range from 10 μM to 0.003 μM in 0.5% DMSO. Compounds were tested at 8 concentrations in quadruplicate data points. […] Finally, cells were lysed with 20 μl of Triton/Luciferin solution and the signal of the emitted luminescence was recorded at the FLIPR^TETRA for 2 minutes. […]

Row | IC50 or EC50 (antagonist or agonist mode, not stated per compound) [nM] | SMILES
1 | < 100 | Cc1nnc2n1-c1c(c(F)cc(-c3cc(F)cc4c3ccn4S(C)(=O)=O)c1C(F)F)NC2(C)C [Example 455, 9-(difluoromethyl)-6-fluoro-8-(6-fluoro-1-(methylsulfonyl)-1H-indol-4-yl)-1,4,4-trimethyl-4,5-dihydro-[1,2,4]triazolo[4,3-a]quinoxaline]
2 | < 100 | Cc1c(-c2cccc3c2ccn3S(C)(=O)=O)cc(Cl)c2c1-n1c(C)nnc1C(C)(C)N2 [Example 456, 6-Chloro-1,4,4,9-tetramethyl-8-(1-methylsulfonyl-1H-indol-4-yl)-5H-[1,2,4]triazolo[4,3-a]quinoxaline]
3 | < 100 | Cc1c(-c2cc(F)cc3c2ccn3S(C)(=O)=O)cc(Cl)c2c1-n1c(C)nnc1C(C)(C)N2 [Example 457, 6-Chloro-8-(6-fluoro-1-methylsulfonyl-1H-indol-4-yl)-1,4,4,9-tetramethyl-5H-[1,2,4]triazolo[4,3-a]quinoxaline]
4 | 100 to 1000 | Cc1c(-c2cccc3c2cnn3S(C)(=O)=O)cc(Cl)c2c1-n1c(C)nnc1C(C)(C)N2 [Example 458, 6-Chloro-1,4,4,9-tetramethyl-8-(1-methylsulfonyl-1H-indazol-4-yl)-5H-[1,2,4]triazolo[4,3-a]quinoxaline]
5 | < 100 | Cc1nnc2n1-c1c(c(F)cc(-c3cccc4c3ccn4S(C)(=O)=O)c1C(F)F)NC2(C)C [Example 459, 9-(Difluoro-methyl)-6-fluoro-1,4,4-trimethyl-8-(1-methylsulfonyl-1H-indol-4-yl)-5H-[1,2,4]triazolo[4,3-a]quinoxaline]
6 | < 100 | CCS(=O)(=O)n1ccc2c(-c3cc(F)c4c(c3C(F)F)-n3c(C)nnc3C(C)(C)N4)cc(F)cc21 [Example 460, 9-(Difluoro-methyl)-8-[1-(ethylsulfonyl)-6-fluoro-1H-indol-4-yl]-6-fluoro-1,4,4-trimethyl-5H-[1,2,4]triazolo[4,3-a]quinoxaline]
7 | 100 to 1000 | CCS(=O)(=O)n1ccc2c(-c3cc(F)c4c(c3C(F)F)-n3c(C)nnc3C(C)(C)N4)cccc21 [Example 461, 9-(Difluoro-methyl)-8-[1-(ethylsulfonyl)-1H-indol-4-yl]-6-fluoro-1,4,4-trimethyl-5H-[1,2,4]triazolo[4,3-a]quinoxaline]
8 | < 100 | Cc1c[nH]c2c(-c3cc(F)c4c(c3C(F)F)-n3c(C)nnc3C(C)(C)N4)cc(F)cc12 [Example 462, 9-(Difluoro-methyl)-6-fluoro-8-(5-fluoro-3-methyl-1H-indol-7-yl)-1,4,4-trimethyl-5H-[1,2,4]triazolo[4,3-a]quinoxaline]
9 | < 100 | Cc1c(-c2cc(F)cc3c2ccn3CCO)cc(Cl)c2c1-n1c(C)nnc1C(C)(C)N2 [Example 463, 2-[4-(6-Chloro-1,4,4,9-tetramethyl-5H-[1,2,4]triazolo[4,3-a]quinoxalin-8-yl)-6-fluoro-1H-indol-1-yl]-EtOH]
10 | 100 to 1000 | CCc1c(-c2cc(F)cc3c2ccn3CCO)cc(F)c2c1-n1c(C)nnc1C(C)(C)N2 [Example 464, 2-[4-(9-Ethyl-6-fluoro-1,4,4-trimethyl-5H-[1,2,4]triazolo[4,3-a]quinoxalin-8-yl)-6-fluoro-1H-indol-1-yl]-EtOH]
11 | < 100 | Cc1c(-c2cc(F)cc3[nH]ccc23)cc(F)c2c1-n1c(C)nnc1C(C)(C)N2 [Example 465, 6-fluoro-8-(6-fluoro-1H-indol-4-yl)-1,4,4,9-tetramethyl-4,5-dihydro-[1,2,4]triazolo[4,3-a]quinoxaline]
12 | 100 to 1000 | Cc1n[nH]c2c(-c3cc(F)c4c(c3C(F)F)-n3c(C)nnc3C(C)(C)N4)cccc12 [Example 466, 9-(difluoromethyl)-6-fluoro-1,4,4-trimethyl-8-(3-methyl-1H-indazol-7-yl)-4,5-dihydro-[1,2,4]triazolo[4,3-a]quinoxaline]
13 | 100 to 1000 | Cc1nnc2n1-c1c(c(F)cc(-c3cc(F)cc4c3cnn4S(C)(=O)=O)c1C1CC1)NC2(C)C [Example 467, 9-Cyclopropyl-6-fluoro-8-(6-fluoro-1-methylsulfonyl-1H-indazol-4-yl)-1,4,4-trimethyl-5H-[1,2,4]triazolo[4,3-a]quinoxaline]
14 | < 100 | Cc1c(-c2cccc3[nH]ccc23)cc(F)c2c1-n1c(C)nnc1C(C)(C)N2 [Example 468, 6-Fluoro-8-(1H-indol-4-yl)-1,4,4,9-tetramethyl-5H-[1,2,4]triazolo[4,3-a]quinoxaline]
15 | 100 to 1000 | COc1c(-c2cccc3[nH]ccc23)cc(F)c2c1-n1c(C)nnc1C(C)(C)N2 [Example 469, 6-Fluoro-8-(1H-indol-4-yl)-9-methoxy-1,4,4-trimethyl-5H-[1,2,4]triazolo[4,3-a]quinoxaline]
16 | 100 to 1000 | COc1c(-c2cc(F)cc3[nH]ccc23)cc(F)c2c1-n1c(C)nnc1C(C)(C)N2 [Example 470, 6-Fluoro-8-(6-fluoro-1H-indol-4-yl)-9-methoxy-1,4,4-trimethyl-5H-[1,2,4]triazolo[4,3-a]quinoxaline]
17 | < 100 | Cc1nnc2n1-c1c(c(F)cc(-c3cc(F)cc4c3ccn4S(C)(=O)=O)c1C1CC1)NC2(C)C [Example 471, 9-Cyclopropyl-6-fluoro-8-(6-fluoro-1-methylsulfonyl-1H-indol-4-yl)-1,4,4-trimethyl-5H-[1,2,4]triazolo[4,3-a]quinoxaline]
18 | 100 to 1000 | Cc1c[nH]c2c(-c3cc(F)c4c(c3C3CC3)-n3c(C)nnc3C(C)(C)N4)cccc12 [Example 472, 9-Cyclopropyl-6-fluoro-1,4,4-trimethyl-8-(3-methyl-1H-indol-7-yl)-5H-[1,2,4]triazolo[4,3-a]quinoxaline]
19 | 100 to 1000 | COc1c(-c2cc(C(F)(F)F)cc3[nH]ccc23)cc(F)c2c1-n1c(C)nnc1C(C)(C)N2 [Example 473, 6-Fluoro-9-methoxy-1,4,4-trimethyl-8-[6-(trifluoromethyl)-1H-indol-4-yl]-5H-[1,2,4]triazolo[4,3-a]quinoxaline]
20 | 100 to 1000 | Cc1nnc2n1-c1c(c(F)cc(-c3cccc4c3ccn4S(C)(=O)=O)c1C1CC1)NC2(C)C [Example 474, 9-Cyclopropyl-6-fluoro-1,4,4-trimethyl-8-(1-methylsulfonyl-1H-indol-4-yl)-5H-[1,2,4]triazolo[4,3-a]quinoxaline]
21 | 100 to 1000 | Cc1cc(-c2cc(F)c3c(c2C)-n2c(C)nnc2C(C)(C)N3)c2ccn(S(C)(=O)=O)c2c1 [Example 475, 6-Fluoro-1,4,4,9-tetramethyl-8-(6-methyl-1-methylsulfonyl-1H-indol-4-yl)-5H-[1,2,4]triazolo[4,3-a]quinoxaline]
